In brackets after ≈: the same amount, converted by molar mass.
Key:
[1] = system: M. tuberculosis H37Rv reference strain; experiment: MGIT 960 mycobacterial growth inhibition, H37Rv; type: cell-based, Mycobacterium tuberculosis; settings: for GROWTH UNITS (Day 8) / SUSCEPTIBILITY MIC99: H37Rv
[2] = system: M. tb X51 clinical isolate; experiment: microbe, parasite or virus in culture; type: cell-based, Mycobacterium tuberculosis; settings: for GROWTH UNITS (Day 8) / SUSCEPTIBILITY MIC99: X51
[3] = Linezolid 1 μg/ml, growth control GU 400

Which “GROWTH UNITS (Day 8)” value ([1]; Linezolid 0.125 μg/ml) does the source give for `CC(=O)NC[C@H]1CN(c2ccc(N3CCOCC3)c(F)c2)C(=O)O1` [Linezolid, (S)-N-[[3-(3-fluoro-4-morpholinylpheny1)-2-oxo-5-oxazolidinyl]methyl] acetamide] here?
Its value is 12030.

And the “SUSCEPTIBILITY MIC99” value ([1]; Linezolid 0.125 μg/ml)?
The value was “− (the GU of the drug-containing tube were more than 400, the results were defined as showing resistance)”.

What about the “GROWTH UNITS (Day 8)” value ([1]; Linezolid 0.25 μg/ml) of the same molecule?
The value was 12878.

And the “SUSCEPTIBILITY MIC99” value ([1]; Linezolid 0.25 μg/ml)?
Its value is “− (the GU of the drug-containing tube were more than 400, the results were defined as showing resistance)”.

What about the “GROWTH UNITS (Day 8)” value ([1]; Linezolid 0.5 μg/ml) of the same molecule?
The value was 4674.

And the “SUSCEPTIBILITY MIC99” value ([1]; Linezolid 0.5 μg/ml)?
The value was “− (the GU of the drug-containing tube were more than 400, the results were defined as showing resistance)”.

And the “SUSCEPTIBILITY MIC99” value ([1]; Linezolid 1 μg/ml)?
Its value is “+ (when the GU of the drug-containing tube were less than 400, the results were considered to show susceptibility)”.

And the “GROWTH UNITS (Day 8)” value [1, 3]?
Its value is 377.

What about the MIC ([1]; Mycobacterium tuberculosis, H37Rv Strain, read-out: Minimum Inhibitory Concentration) of the same molecule?
The MIC was 1 µg/mL (≈ 2.96 µM).

And the MIC ([2]; Mycobacterium tuberculosis, read-out: Minimum Inhibitory Concentration)?
The MIC was 1 µg/mL (≈ 2.96 µM).

What about the “GROWTH UNITS (Day 8)” value ([2]; Linezolid 0.125 μg/ml) of the same molecule?
The value was 9164.

What about the “SUSCEPTIBILITY MIC99” value ([2]; Linezolid 0.125 μg/ml) of the same molecule?
The value was “− (the GU of the drug-containing tube were more than 400, the results were defined as showing resistance)”.

And the “GROWTH UNITS (Day 8)” value ([2]; Linezolid 0.25 μg/ml)?
Its value is 6727.

What about the “SUSCEPTIBILITY MIC99” value ([2]; Linezolid 0.25 μg/ml) of the same molecule?
Its value is “− (the GU of the drug-containing tube were more than 400, the results were defined as showing resistance)”.

What about the “GROWTH UNITS (Day 8)” value ([2]; Linezolid 0.5 μg/ml) of the same molecule?
The value was 714.

And the “SUSCEPTIBILITY MIC99” value ([2]; Linezolid 0.5 μg/ml)?
The value was “− (the GU of the drug-containing tube were more than 400, the results were defined as showing resistance)”.

What about the “SUSCEPTIBILITY MIC99” value ([2]; Linezolid 1 μg/ml) of the same molecule?
Its value is “+ (when the GU of the drug-containing tube were less than 400, the results were considered to show susceptibility)”.

And the “GROWTH UNITS (Day 8)” value [2, 3]?
The value was 0.
